Laboratory results taken from patent US8247211B2, “Glycopeptide antibiotics” (American Cyanamid Company, priority 2001, dated 2012).
≈ marks a conversion by molar mass, not a printed value.

Legend:
Assay in all cases: In vitro antibacterial evaluation: minimum inhibitory concentration (MIC), broth dilution method
Assay type in all cases: cell-based
Enterococcus sp. = system: Enterococcus sp.
Procedure, shortened: (§1)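 Following NCCLS approved standard M7-A2, compounds are serially diluted from 64 to 0.06 μg/mL in Muller-Hinton II […] and inoculated at 5×10^5 CFU/mL; the MIC is the minimum concentration at which growth is inhibited.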

Escherichia coli = system: Escherichia coli
Procedure, shortened: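 Susceptibility determined by NCCLS-recommended broth dilution (M7-A2), Muller-Hinton II […]. Concentration span 64-0.06 μg/mL, inoculum 5×10^5 CFU/mL. Isolates include strains resistant to methicillin, penicillin and/or vancomycin.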

Staphylococcus sp. = conditions: 18 hours at 35° C.
Procedure, shortened: as §1

Streptococcus sp. = system: Streptococcus sp.
Procedure, shortened: as §1

[1] = broth dilution, inoculum 5×10^5 CFU/mL, 18 hours at 35° C.

## COc1ccc(COC2C(CO)OC(OC3C(CO)OC(Oc4ccc(CC5NC(=O)C(C(C)c6ccccc6)NC(=O)CNC(=O)C(CO)NC(=O)C(C(O)C6CNC(=N)N6C6OC(CO)C(O)C(O)C6O)NC(=O)C(C(O)C6CNC(=N)N6)NC5=O)cc4)C(O)C3O)C(O)C2O)cc1OCc1ccccc1 (stereo not drawn) [Example 239a, Cyclo[glycyl-β-methylphenylalanyl-O-[4-O-[4-O-[4-methoxy-3-(phenylmethoxy)benzyl]-hexopyranosyl]hexopyranosyl]tyrosyl-3-(2-iminoimidazolidin-4-yl)seryl-3-(3-hexopyranosyl-2-iminoimidazolidin-4-yl)serylseryl]]
Enterococcus sp.; Enterococcus avium (GC 4558), 18 hours at 35° C.
  MIC Enterococcus avium (GC 4558): 8 µg/mL (≈ 5.26 µM)
Enterococcus sp.; Enterococcus faecalis (ATCC 29212), 18 hours at 35° C.
  MIC Enterococcus faecalis (ATCC 29212): 8 µg/mL (≈ 5.26 µM)
Enterococcus sp.; Enterococcus faecalis (GC 2242), 18 hours at 35° C.
  MIC Enterococcus faecalis (GC 2242): 8 µg/mL (≈ 5.26 µM)
Enterococcus sp.; Enterococcus faecalis (GC 2691), 18 hours at 35° C.
  MIC Enterococcus faecalis (GC 2691): 8 µg/mL (≈ 5.26 µM)
Enterococcus sp.; Enterococcus faecalis (GC 3059), 18 hours at 35° C.
  MIC Enterococcus faecalis (GC 3059): 8 µg/mL (≈ 5.26 µM)
Enterococcus sp.; Enterococcus faecalis (GC 4552), 18 hours at 35° C.
  MIC Enterococcus faecalis (GC 4552): 8 µg/mL (≈ 5.26 µM)
Enterococcus sp.; Enterococcus faecalis (GC 4553), 18 hours at 35° C.
  MIC Enterococcus faecalis (GC 4553): 8 µg/mL (≈ 5.26 µM)
Enterococcus sp.; Enterococcus faecalis (GC 4554), 18 hours at 35° C.
  MIC Enterococcus faecalis (GC 4554): 16 µg/mL (≈ 10.5 µM)
Enterococcus sp.; Enterococcus faecalis (GC 6189), 18 hours at 35° C.
  MIC Enterococcus faecalis (GC 6189): 8 µg/mL (≈ 5.26 µM)
Enterococcus sp.; Enterococcus faecium (GC 2243), 18 hours at 35° C.
  MIC Enterococcus faecium (GC 2243): 8 µg/mL (≈ 5.26 µM)
Enterococcus sp.; Enterococcus faecium (GC 4556), 18 hours at 35° C.
  MIC Enterococcus faecium (GC 4556): 8 µg/mL (≈ 5.26 µM)
Enterococcus sp.; Enterococcus faecium (GC 4557), 18 hours at 35° C.
  MIC Enterococcus faecium (GC 4557): 4 µg/mL (≈ 2.63 µM)
Enterococcus sp.; [1]
  MIC Enterococcus faecalis (GC 2242): 8 µg/mL (≈ 5.26 µM)
  MIC Enterococcus faecalis (GC 2691): 8 µg/mL (≈ 5.26 µM)
  MIC Enterococcus faecalis (GC 3059): 8 µg/mL (≈ 5.26 µM)
Escherichia coli; Escherichia coli (ATCC 25922), 18 hours at 35° C.
  MIC Escherichia coli (ATCC 25922): >64 µg/mL
Escherichia coli; Escherichia coli (GC 4559), 18 hours at 35° C.
  MIC Escherichia coli (GC 4559): >64 µg/mL
Escherichia coli; Escherichia coli (GC 4560), 18 hours at 35° C.
  MIC Escherichia coli (GC 4560): 2 µg/mL (≈ 1.31 µM)
Staphylococcus sp.; Coagulase Negative Staphylococcus (GC 4547)
  MIC Coagulase Negative Staphylococcus (GC 4547): 2 µg/mL (≈ 1.31 µM)
Staphylococcus sp.; Coagulase Negative Staphylococcus (GC 4548)
  MIC Coagulase Negative Staphylococcus (GC 4548): 1 µg/mL (≈ 0.657 µM)
Staphylococcus sp.; Coagulase Negative Staphylococcus (GC 4549)
  MIC Coagulase Negative Staphylococcus (GC 4549): 2 µg/mL (≈ 1.31 µM)
Staphylococcus sp.; Coagulase Negative Staphylococcus (GC 4551)
  MIC Coagulase Negative Staphylococcus (GC 4551): 2 µg/mL (≈ 1.31 µM)
Staphylococcus sp.; Coagulase Negative Staphylococcus (GC 6257)
  MIC Coagulase Negative Staphylococcus (GC 6257): 2 µg/mL (≈ 1.31 µM)
Staphylococcus sp.; Staphylococcus aureus (ATCC 29213)
  MIC Staphylococcus aureus (ATCC 29213): 4 µg/mL (≈ 2.63 µM)
Staphylococcus sp.; Staphylococcus aureus (GC 1131)
  MIC Staphylococcus aureus (GC 1131): 4 µg/mL (≈ 2.63 µM)
Staphylococcus sp.; Staphylococcus aureus (GC 3051)
  MIC Staphylococcus aureus (GC 3051): 2 µg/mL (≈ 1.31 µM)
Staphylococcus sp.; Staphylococcus aureus (GC 3053)
  MIC Staphylococcus aureus (GC 3053): 4 µg/mL (≈ 2.63 µM)
Staphylococcus sp.; Staphylococcus aureus (GC 4541)
  MIC Staphylococcus aureus (GC 4541): 4 µg/mL (≈ 2.63 µM)
Staphylococcus sp.; Staphylococcus aureus (GC 4542)
  MIC Staphylococcus aureus (GC 4542): 4 µg/mL (≈ 2.63 µM)
Staphylococcus sp.; Staphylococcus aureus (GC 4544)
  MIC Staphylococcus aureus (GC 4544): 4 µg/mL (≈ 2.63 µM)
Staphylococcus sp.; Staphylococcus aureus (GC 4545)
  MIC Staphylococcus aureus (GC 4545): 4 µg/mL (≈ 2.63 µM)
Staphylococcus sp.; Staphylococcus aureus-SMITH (GC 4543)
  MIC Staphylococcus aureus-SMITH (GC 4543): 2 µg/mL (≈ 1.31 µM)
Staphylococcus sp.; Staphylococcus haemolyticus (GC 4546)
  MIC Staphylococcus haemolyticus (GC 4546): 2 µg/mL (≈ 1.31 µM)
Streptococcus sp.; Streptococcus agalactiae (GC 4564), 18 hours at 35° C.
  MIC Streptococcus agalactiae (GC 4564): 1 µg/mL (≈ 0.657 µM)
Streptococcus sp.; Streptococcus pneumoniae (ATCC 6301), 18 hours at 35° C.
  MIC Streptococcus pneumoniae (ATCC 6301): 0.25 µg/mL (≈ 0.164 µM)
Streptococcus sp.; Streptococcus pneumoniae (GC 1894), 18 hours at 35° C.
  MIC Streptococcus pneumoniae (GC 1894): <0.06 µg/mL
Streptococcus sp.; Streptococcus pneumoniae (GC 4565), 18 hours at 35° C.
  MIC Streptococcus pneumoniae (GC 4565): 0.25 µg/mL (≈ 0.164 µM)
Streptococcus sp.; Streptococcus pyogenes (GC 4563), 18 hours at 35° C.
  MIC Streptococcus pyogenes (GC 4563): 2 µg/mL (≈ 1.31 µM)
Streptococcus sp.; [1]
  MIC Streptococcus agalactiae (GC 4564): 1 µg/mL (≈ 0.657 µM)
  MIC Streptococcus pneumoniae (ATCC 6301): 0.25 µg/mL (≈ 0.164 µM)
  MIC Streptococcus pneumoniae (GC 1894): <0.06 µg/mL
  MIC Streptococcus pneumoniae (GC 4565): 0.25 µg/mL (≈ 0.164 µM)
  MIC Streptococcus pyogenes (GC 4563): 2 µg/mL (≈ 1.31 µM)

## COc1cccc(C2OC3C(OC4C(CO)OC(Oc5ccc(CC6NC(=O)C(C(C)c7ccccc7)NC(=O)CNC(=O)C(CO)NC(=O)C(C(O)C7CNC(=N)N7C7OC(CO)C(O)C(O)C7O)NC(=O)C(C(O)C7CNC(=N)N7)NC6=O)cc5)C(O)C4O)OC(CO)C(O)C3O2)c1 (single isomer, unassigned) [Example 137b, Cyclo[glycyl-β-methylphenylalanyl-O-[4-O-[2,3-O-(3-methoxybenzylidene)hexopyranosyl]-hexopyranosyl]tyrosyl-3-(2-iminoimidazolidin-4-yl)seryl-3-(3-hexopyranosyl-2-iminoimidazolidin-4-yl)serylseryl]]
Enterococcus sp.; strain ATCC 29212
  MIC Enterococcus faecalis (ATCC 29212): 32 µg/mL (≈ 22.6 µM)
Enterococcus sp.; strain GC 2242
  MIC Enterococcus faecalis (GC 2242): 32 µg/mL (≈ 22.6 µM)
Enterococcus sp.; strain GC 2243
  MIC Enterococcus faecium (GC 2243): 64 µg/mL (≈ 45.3 µM)
Enterococcus sp.; strain GC 2691
  MIC Enterococcus faecalis (GC 2691): 32 µg/mL (≈ 22.6 µM)
Enterococcus sp.; strain GC 3059
  MIC Enterococcus faecalis (GC 3059): 64 µg/mL (≈ 45.3 µM)
Enterococcus sp.; strain GC 4552
  MIC Enterococcus faecalis (GC 4552): 32 µg/mL (≈ 22.6 µM)
Enterococcus sp.; strain GC 4553
  MIC Enterococcus faecalis (GC 4553): 32 µg/mL (≈ 22.6 µM)
Enterococcus sp.; strain GC 4554
  MIC Enterococcus faecalis (GC 4554): 64 µg/mL (≈ 45.3 µM)
Enterococcus sp.; strain GC 4556
  MIC Enterococcus faecium (GC 4556): 32 µg/mL (≈ 22.6 µM)
Enterococcus sp.; strain GC 4557
  MIC Enterococcus faecium (GC 4557): 8 µg/mL (≈ 5.66 µM)
Enterococcus sp.; strain GC 4558
  MIC Enterococcus avium (GC 4558): 32 µg/mL (≈ 22.6 µM)
Enterococcus sp.; strain GC 6189
  MIC Enterococcus faecalis (GC 6189): 32 µg/mL (≈ 22.6 µM)
Escherichia coli; strain ATCC 25922
  MIC Escherichia coli (ATCC 25922): >64 µg/mL
Escherichia coli; strain GC 4559
  MIC Escherichia coli (GC 4559): >64 µg/mL
Escherichia coli; strain GC 4560
  MIC Escherichi coli (GC 4560): 4 µg/mL (≈ 2.83 µM)
Staphylococcus sp.; broth dilution, 5×10^5 CFU/mL
  MIC Coagulase Negative Staphylococcus (GC 4547): 8 µg/mL (≈ 5.66 µM)
  MIC Coagulase Negative Staphylococcus (GC 4548): 4 µg/mL (≈ 2.83 µM)
  MIC Coagulase Negative Staphylococcus (GC 4549): 8 µg/mL (≈ 5.66 µM)
  MIC Coagulase Negative Staphylococcus (GC 4551): 8 µg/mL (≈ 5.66 µM)
  MIC Coagulase Negative Staphylococcus (GC 6257): 4 µg/mL (≈ 2.83 µM)
  MIC Staphylococcus aureus (ATCC 29213): 16 µg/mL (≈ 11.3 µM)
  MIC Staphylococcus aureus (GC 1131): 16 µg/mL (≈ 11.3 µM)
  MIC Staphylococcus aureus (GC 3051): 16 µg/mL (≈ 11.3 µM)
  MIC Staphylococcus aureus (GC 3053): 16 µg/mL (≈ 11.3 µM)
  MIC Staphylococcus aureus (GC 4541): 8 µg/mL (≈ 5.66 µM)
  MIC Staphylococcus aureus (GC 4542): 16 µg/mL (≈ 11.3 µM)
  MIC Staphylococcus aureus (GC 4544): 16 µg/mL (≈ 11.3 µM)
  MIC Staphylococcus aureus (GC 4545): 16 µg/mL (≈ 11.3 µM)
  MIC Staphylococcus aureus-SMITH (GC 4543): 8 µg/mL (≈ 5.66 µM)
  MIC Staphylococcus haemolyticus (GC 4546): 8 µg/mL (≈ 5.66 µM)
Staphylococcus sp.; strain ATCC 29213, broth dilution
  MIC Staphylococcus aureus (ATCC 29213): 16 µg/mL (≈ 11.3 µM)
Staphylococcus sp.; strain GC 1131, broth dilution
  MIC Staphylococcus aureus (GC 1131): 16 µg/mL (≈ 11.3 µM)
Staphylococcus sp.; strain GC 3051, broth dilution
  MIC Staphylococcus aureus (GC 3051): 16 µg/mL (≈ 11.3 µM)
Staphylococcus sp.; strain GC 3053, broth dilution
  MIC Staphylococcus aureus (GC 3053): 16 µg/mL (≈ 11.3 µM)
Staphylococcus sp.; strain GC 4541, broth dilution
  MIC Staphylococcus aureus (GC 4541): 8 µg/mL (≈ 5.66 µM)
Staphylococcus sp.; strain GC 4542, broth dilution
  MIC Staphylococcus aureus (GC 4542): 16 µg/mL (≈ 11.3 µM)
Staphylococcus sp.; strain GC 4543, broth dilution
  MIC Staphylococcus aureus-SMITH (GC 4543): 8 µg/mL (≈ 5.66 µM)
Staphylococcus sp.; strain GC 4544, broth dilution
  MIC Staphylococcus aureus (GC 4544): 16 µg/mL (≈ 11.3 µM)
Staphylococcus sp.; strain GC 4545, broth dilution
  MIC Staphylococcus aureus (GC 4545): 16 µg/mL (≈ 11.3 µM)
Staphylococcus sp.; strain GC 4546, broth dilution
  MIC Staphylococcus haemolyticus (GC 4546): 8 µg/mL (≈ 5.66 µM)
Staphylococcus sp.; strain GC 4547, broth dilution
  MIC Coagulase Negative Staphylococcus (GC 4547): 8 µg/mL (≈ 5.66 µM)
Staphylococcus sp.; strain GC 4548, broth dilution
  MIC Coagulase Negative Staphylococcus (GC 4548): 4 µg/mL (≈ 2.83 µM)
Staphylococcus sp.; strain GC 4549, broth dilution
  MIC Coagulase Negative Staphylococcus (GC 4549): 8 µg/mL (≈ 5.66 µM)
Staphylococcus sp.; strain GC 4551, broth dilution
  MIC Coagulase Negative Staphylococcus (GC 4551): 8 µg/mL (≈ 5.66 µM)
Staphylococcus sp.; strain GC 6257, broth dilution
  MIC Coagulase Negative Staphylococcus (GC 6257): 4 µg/mL (≈ 2.83 µM)
Streptococcus sp.; strain ATCC 6301
  MIC Streptococcus pneumoniae (ATCC 6301): 2 µg/mL (≈ 1.42 µM)
Streptococcus sp.; strain GC 1894
  MIC Streptococcus pneumoniae (GC 1894): 1 µg/mL (≈ 0.708 µM)
Streptococcus sp.; strain GC 4563
  MIC Streptococcus pyogenes (GC 4563): 4 µg/mL (≈ 2.83 µM)
Streptococcus sp.; strain GC 4564
  MIC Streptococcus agalactiae (GC 4564): 4 µg/mL (≈ 2.83 µM)
Streptococcus sp.; strain GC 4565
  MIC Streptococcus pneumoniae (GC 4565): 2 µg/mL (≈ 1.42 µM)
